Laboratory results published in article PMC10451034, “Highly Efficient Photosensitizers with Molecular Vibrational Torsion for Cancer Photodynamic Therapy” (ACS Central Science, 2023).

How the values were obtained:
HepG2 cells [1] = assay: Intracellular ROS detection with DCFH-DA; assay type: cell-based, human; settings: after 660 nm light irradiation
Method: In order to explore the mechanism of cellular structure destruction caused by QTCy7-R, intracellular ROS generation was investigated by DCFH-DA reagent. […] Ulteriorly, cell destruction caused by ROS generation was assessed by Calcein-AM/propidium iodide (PI)-mediated fluorescence imaging (Figures 9c and S21). […]
medium (DMEM, Invitrogen) with 10 % fetal bovine serum (Invitrogen) and 1% penicillinstreptomycin. All cells were treated at 37 °C with the humidified atmosphere containing 5% CO2 and 95% air. Before conducting cell imaging experiments, all types of cells were maintained on 35 mm glass-bottom cell dishes for 24 h.
(§1) Confocal fluorescence imaging
(§2) After culturing the cells in 35 mm glass-bottom cell dishes for 24 h, the DMEM medium was replaced with saline, then QTCy7-R was added (3 μM). The confocal fluorescence imaging was carried out and images were recorded. (λex = 640 nm, λem = 680-780 nm). […] After fluorescence imaging, colocalization coefficient was analyzed and recorded. […]
(§3) fluorescence signal (JC-1 monomer). […]
(§4) 2,7-dichlorofluorescein diacetate (DCFH-DA) Detection Kit was chosen to validate the intracellular ROS generation. […] Then the cells were exposed under NIR irradiation, after which the confocal fluorescence imaging was performed . […]

[2] = Triplet lifetime by laser flash photolysis; assay type: physicochemical; settings: 5 μM in deaerated dichloromethane, λex = 610 nm
From the text: To probe the mechanism of the observed phenomenon and further validate our hypothesis, ultrafast excited-state dynamic behaviors were implemented by using femtosecond transient absorption spectroscopy (fs-TA) (Figures 3a and S4a–c). In order to obtain the complete process of excited states, a 350 nm laser was chosen as a pump to populate the high singlet excited states (Sn) from the ground state (S0). […] With the growth of delay time, the ESA of S1 gradually decayed (τ = 7.65 ps); meanwhile, beyond our expectation, accompanied by a particularly noticeable peak at ca. 583 nm increasing promptly, this new emerging ESA peak reached its maximum within about 21.98 ps. Similar phenomena were found in the transient spectra of the other three compounds (Figures S4d–f). However, for the control TCy7, there was no obvious formation of another ESA peak in transient spectra (Figure S5). […] Furthermore, the rate of X state formation was calculated to be 4.54 × 10^10 s^–1 for QTCy7-Ac based on the rise time (kX = 1/τX,rise), which was close to the order of magnitude of the intramolecular distorted vibration behavior. […] Meanwhile, the triplet lifetime of this series of molecules was evaluated and inspected for further applications (Figures 3d and S4g–i). […]
Photoexcited singlet oxygen production was detected by employed 1,3-diphenylisobenzofuran (DPBF) as the indicator. The absorbance of DPBF at 415 nm was regulated to about 1.0 in DCM. And the samples were irradiated with 660 nm light for various times, then the absorption spectra of different time nodes were recorded.
The singlet oxygen quantum yield (ΦΔ) was calculated by the following equation:
Where “Φ” represent the singlet oxygen quantum yield , “sam” and “std” represent QTCy7-R and MB, respectively. “m” is the slope of the absorbance of DPBF at 415 nm with time, F=1–10-O.D. (O.D. is the absorbance of samples at 660 nm). […]
The triplet life of QTCy7-R was measured by LP980 laser flash photolysis spectrometer (Edinburgh Instruments Ltd.) in combination with a Nd:YAG laser (Surelite I-10, Continuum Electro-Optics, Inc.). […]

HepG2 cells [3] = assay: Mitochondrial membrane potential detection by JC-1 staining; assay type: cell-based, human; settings: 660 nm irradiation (6 J/cm^2)
Method: Next, in order to verify the disruption effect on cell structural integrity of the ^1O2 generation by QTCy7-R under irradiation, JC-1 staining imaging was conducted to monitor the mitochondria membrane potential. […] On the other hand, cell membrane damage caused by the photooxidation of QTCy7-Ac and QTCy7-CHO could be confirmed by a visualized observation. […] Furthermore, the lactate dehydrogenase (LDH) content in cell culture medium was measured to characterize the extent of cell membrane damage.[49] […]
medium (DMEM, Invitrogen) with 10 % fetal bovine serum (Invitrogen) and 1% penicillinstreptomycin. All cells were treated at 37 °C with the humidified atmosphere containing 5% CO2 and 95% air. […]
as §1
as §2, with “recorded.” for “recorded. (λex = 640 nm, λem = 680-780 nm).”
as §3, §4

Q: With CCOC(=O)C1=C/C(=C\C=C2/Sc3ccccc3N2CC)C(=O)C(/C=C/c2sc3ccccc3[n+]2CC)=C1 [QTCy7-Ac] as the molecule, how does the “intracellular ROS generation (DCFH-DA fluorescence)” value (HepG2 cells [1]) read?
A: stronger fluorescence signal

Q: Which triplet lifetime [2] does the source give for CCN1/C(=C/C=C2\C=C(C)C=C(/C=C/c3sc4ccccc4[n+]3CC)C2=O)Sc2ccccc21 [QTCy7-Me] here?
A: about 12 μs

Q: What about the “mitochondrial membrane potential change” value (HepG2 cells [3]) of the same molecule?
A: severe mitochondrial depolarization

Q: For CCN1/C(=C/C=C2\C=C(C=O)C=C(/C=C/c3sc4ccccc4[n+]3CC)C2=O)Sc2ccccc21 [QTCy7-CHO], which triplet lifetime [2] is on record?
A: about 2 μs

Q: Which results are given for CCN1/C(=C/C=C2\C=C(c3ccccc3)C=C(/C=C/c3sc4ccccc4[n+]3CC)C2=O)Sc2ccccc21 [QTCy7-Ph]?
A: triplet lifetime [2]: about 12 μs; mitochondrial membrane potential change (HepG2 cells [3]): severe mitochondrial depolarization; intracellular ROS generation (DCFH-DA fluorescence) (HepG2 cells [1]): stronger fluorescence signal
